Data published in PMC5218480 (PLoS ONE, 2017).

Test system: MV-4-11 cells
Assay: Gene expression microarray analysis (Affymetrix PrimeView) and GSEA
Type: cell-based, human
Design: RFU PODN (11730768_x_at) / Fold change /veh PODN (11730768_x_at) / RFU LINC00158 (11744669_a_at) / Fold change /veh LINC00158 (11744669_a_at) / RFU DUSP10 (11751237_a_at) / Fold change /veh DUSP10 (11751237_a_at) / RFU ID3 (11757404_x_at) / Fold change /veh ID3 (11757404_x_at) / RFU PLEKHG5 (11737974_s_at) / Fold change /veh PLEKHG5 (11737974_s_at) / RFU LRRC4B (11730491_at) / Fold change /veh LRRC4B (11730491_at) / RFU GIMAP4 (11747438_a_at) / Fold change /veh GIMAP4 (11747438_a_at) / RFU KRT8 (11758183_x_at) / Fold change /veh KRT8 (11758183_x_at) / RFU CNN1 (11734310_a_at) / Fold change /veh CNN1 (11734310_a_at) / RFU VPS37D (11726825_at) / Fold change /veh VPS37D (11726825_at) / RFU C10orf10 (11716522_x_at) / Fold change /veh C10orf10 (11716522_x_at) / RFU KIR2DL2 /// KIR2DL4 /// KIR2DL5A /// KIR2DL5B /// KIR2DS1 /// KIR2DS2 /// KIR2DS3 /// KIR2DS4 /// KIR3DL3 /// KIR3DL3 /// KIR3DS1 (11738374_at) / Fold change /veh KIR2DL2 /// KIR2DL4 /// KIR2DL5A /// KIR2DL5B /// KIR2DS1 /// KIR2DS2 /// KIR2DS3 /// KIR2DS4 /// KIR3DL3 /// KIR3DL3 /// KIR3DS1 (11738374_at) / RFU C1QL1 (11718748_at) / Fold change /veh C1QL1 (11718748_at) / RFU TMPRSS4 (11747572_a_at) / Fold change /veh TMPRSS4 (11747572_a_at) / RFU HAMP (11756126_x_at) / Fold change /veh HAMP (11756126_x_at) / RFU RNFT2 (11725882_a_at) / Fold change /veh RNFT2 (11725882_a_at) / RFU NR4A2 (11747474_a_at) / Fold change /veh NR4A2 (11747474_a_at) / RFU ABCC12 (11746883_a_at) / Fold change /veh ABCC12 (11746883_a_at) / RFU TMEM136 (11760407_x_at) / Fold change /veh TMEM136 (11760407_x_at) / RFU CLDN22 /// WWC2 (11732394_at) / Fold change /veh CLDN22 /// WWC2 (11732394_at) / RFU HLA-DPB1 (11760878_x_at) / Fold change /veh HLA-DPB1 (11760878_x_at) / RFU SPINT1 (11716480_a_at) / Fold change /veh SPINT1 (11716480_a_at) / RFU GAP43 (11754022_s_at) / Fold change /veh GAP43 (11754022_s_at) / RFU A4GNT (11735810_at) / Fold change /veh A4GNT (11735810_at) / RFU PRB3 (11715151_x_at) / Fold change /veh PRB3 (11715151_x_at) / RFU TUBB4B (11761932_at) / Fold change /veh TUBB4B (11761932_at) / RFU CAPN14 (11732068_a_at) / Fold change /veh CAPN14 (11732068_a_at) / RFU TMCC2 (11721928_a_at) / Fold change /veh TMCC2 (11721928_a_at) / RFU IRGQ (11745062_a_at) / Fold change /veh IRGQ (11745062_a_at) / RFU FAM174B (11720279_a_at) / Fold change /veh FAM174B (11720279_a_at) / RFU TMPRSS4 (11748680_a_at) / Fold change /veh TMPRSS4 (11748680_a_at) / RFU FAM212B (11763350_a_at) / Fold change /veh FAM212B (11763350_a_at) / RFU PLEKHG5 (11743358_a_at) / Fold change /veh PLEKHG5 (11743358_a_at) / RFU ZSCAN30 (11745921_a_at) / Fold change /veh ZSCAN30 (11745921_a_at) / RFU CMKLR1 (11741424_a_at) / Fold change /veh CMKLR1 (11741424_a_at) / RFU LOC101060620 /// MAPK8IP1 (11723275_at) / Fold change /veh LOC101060620 /// MAPK8IP1 (11723275_at) / RFU SPTSSB (11747773_x_at) / Fold change /veh SPTSSB (11747773_x_at) / RFU PRSS12 (11739890_at) / Fold change /veh PRSS12 (11739890_at) / RFU BIN1 (11741810_x_at) / Fold change /veh BIN1 (11741810_x_at) / RFU WNT11 (11732464_a_at) / Fold change /veh WNT11 (11732464_a_at) / RFU C10orf10 (11716521_a_at) / Fold change /veh C10orf10 (11716521_a_at) / RFU C5orf56 (11738089_at) / Fold change /veh C5orf56 (11738089_at) / RFU CYB561 (11721691_x_at) / Fold change /veh CYB561 (11721691_x_at) / RFU ANKRD19P (11752326_a_at) / Fold change /veh ANKRD19P (11752326_a_at) / RFU OR2T12 /// OR2T33 /// OR2T8 (11738714_s_at) / Fold change /veh OR2T12 /// OR2T33 /// OR2T8 (11738714_s_at) / RFU VCAN (11748164_a_at) / Fold change /veh VCAN (11748164_a_at) / RFU JSRP1 (11732532_at) / Fold change /veh JSRP1 (11732532_at) / RFU KRTAP10-11 (11738290_x_at) / Fold change /veh KRTAP10-11 (11738290_x_at) / RFU MYO3A (11730013_a_at) / Fold change /veh MYO3A (11730013_a_at) / RFU EBF3 (11725865_a_at) / Fold change /veh EBF3 (11725865_a_at) / RFU CAMK2N1 (11719241_x_at) / Fold change /veh CAMK2N1 (11719241_x_at) / RFU C5orf56 (11738088_a_at) / Fold change /veh C5orf56 (11738088_a_at) / RFU OLFML3 (11715873_a_at) / Fold change /veh OLFML3 (11715873_a_at) / RFU LOC100653217 /// NTM (11731650_a_at) / Fold change /veh LOC100653217 /// NTM (11731650_a_at) / RFU MAPK11 (11762145_a_at) / Fold change /veh MAPK11 (11762145_a_at) / RFU FIZ1 (11724087_x_at) / Fold change /veh FIZ1 (11724087_x_at) / RFU OASL (11726364_x_at) / Fold change /veh OASL (11726364_x_at) / RFU SOX15 (11748057_x_at) / Fold change /veh SOX15 (11748057_x_at) / RFU CD79A (11719716_a_at) / Fold change /veh CD79A (11719716_a_at) / RFU HIST1H1D (11736915_at) / Fold change /veh HIST1H1D (11736915_at) / RFU CASKIN2 (11723855_a_at) / Fold change /veh CASKIN2 (11723855_a_at) / RFU LOC730098 (11760151_x_at) / Fold change /veh LOC730098 (11760151_x_at) / RFU OR4N2 (11742367_at) / Fold change /veh OR4N2 (11742367_at) / RFU PRRT2 (11749266_a_at) / Fold change /veh PRRT2 (11749266_a_at) / RFU SNX32 (11753110_a_at) / Fold change /veh SNX32 (11753110_a_at) / RFU CDHR5 (11726645_a_at) / Fold change /veh CDHR5 (11726645_a_at) / RFU RCAN1 (11760418_a_at) / Fold change /veh RCAN1 (11760418_a_at) / RFU FAM167A (11723789_a_at) / Fold change /veh FAM167A (11723789_a_at) / RFU FAM26E (11764081_at) / Fold change /veh FAM26E (11764081_at) / RFU ISYNA1 (11749810_s_at) / Fold change /veh ISYNA1 (11749810_s_at) / RFU ACY1 (11761880_at) / Fold change /veh ACY1 (11761880_at) / RFU 11764098_at / Fold change /veh 11764098_at / RFU SAMD14 (11745864_x_at) / Fold change /veh SAMD14 (11745864_x_at) / RFU NPB (11741838_a_at) / Fold change /veh NPB (11741838_a_at) / RFU TMPRSS6 (11731388_a_at) / Fold change /veh TMPRSS6 (11731388_a_at) / RFU KRTAP10-2 (11738614_at) / Fold change /veh KRTAP10-2 (11738614_at) / RFU ARHGAP8 /// PRR5-ARHGAP8 (11727945_x_at) / Fold change /veh ARHGAP8 /// PRR5-ARHGAP8 (11727945_x_at) / RFU KRTAP5-7 /// NADSYN1 (11734609_at) / Fold change /veh KRTAP5-7 /// NADSYN1 (11734609_at) / RFU RASL12 (11751679_a_at) / Fold change /veh RASL12 (11751679_a_at) / RFU CDKN2B (11736163_a_at) / Fold change /veh CDKN2B (11736163_a_at) / RFU PRF1 (11729649_at) / Fold change /veh PRF1 (11729649_at) / RFU, ZNF638 /// ZNF638-IT1 / Fold change vs veh, ZNF638 /// ZNF638-IT1 / RFU, PANK3 / Fold change vs veh, PANK3 / RFU, SH3YL1 / Fold change vs veh, SH3YL1 / RFU, ZEB2 / Fold change vs veh, ZEB2 / RFU, NRIP1 / Fold change vs veh, NRIP1 / RFU, PTTG1IP / Fold change vs veh, PTTG1IP / RFU, CAPN2 / Fold change vs veh, CAPN2 / RFU, MED14 / Fold change vs veh, MED14 / RFU, SNORA58 / Fold change vs veh, SNORA58 / RFU, C1orf63 / Fold change vs veh, C1orf63 / RFU, LRRFIP1 / Fold change vs veh, LRRFIP1 / RFU, NDUFAF7 / Fold change vs veh, NDUFAF7 / RFU, SLC12A2 / Fold change vs veh, SLC12A2 / RFU, IBTK / Fold change vs veh, IBTK / RFU, ESF1 / Fold change vs veh, ESF1 / Fold change vs veh, TMEM50B / RFU, TAOK1 / Fold change vs veh, TAOK1 / RFU, ACBD3 / Fold change vs veh, ACBD3 / RFU, TMA16 / Fold change vs veh, TMA16 / RFU, RWDD3 / Fold change vs veh, RWDD3 / RFU, BCAT1 / Fold change vs veh, BCAT1 / RFU, EDEM3 / Fold change vs veh, EDEM3 / RFU, TMEM33 / Fold change vs veh, TMEM33 / RFU, WDR75 / Fold change vs veh, WDR75 / RFU, AHCTF1 / Fold change vs veh, AHCTF1 / RFU, TFRC / Fold change vs veh, TFRC / RFU, ZDHHC17 / Fold change vs veh, ZDHHC17 / RFU, NOM1 / Fold change vs veh, NOM1 / RFU, ARL8B / Fold change vs veh, ARL8B / RFU, ZBTB11 / Fold change vs veh, ZBTB11 / RFU, TAMM41 / Fold change vs veh, TAMM41 / RFU, KIAA1704 /// LOC100996395 / Fold change vs veh, KIAA1704 /// LOC100996395 / RFU, ING1 / Fold change vs veh, ING1 / RFU, TRMT61B / Fold change vs veh, TRMT61B / RFU, FUBP3 / Fold change vs veh, FUBP3 / RFU, TP53 / Fold change vs veh, TP53 / RFU, TNKS2 / Fold change vs veh, TNKS2 / RFU, ZFP14 / Fold change vs veh, ZFP14 / RFU, ACTR2 / Fold change vs veh, ACTR2 / RFU, PPP3R1 / Fold change vs veh, PPP3R1 / RFU, PIK3R1 / Fold change vs veh, PIK3R1 / RFU, HNRNPA1 / Fold change vs veh, HNRNPA1 / RFU, RNF170 / Fold change vs veh, RNF170 / RFU, ZNF28 / Fold change vs veh, ZNF28 / RFU, RNGTT / Fold change vs veh, RNGTT / RFU, OGT / Fold change vs veh, OGT / RFU, BRD1 / Fold change vs veh, BRD1 / RFU, MARS / Fold change vs veh, MARS / RFU, ZNF655 / Fold change vs veh, ZNF655 / RFU, FAHD1 / Fold change vs veh, FAHD1 / RFU, BDP1 / Fold change vs veh, BDP1 / RFU, LRRCC1 / Fold change vs veh, LRRCC1 / RFU, ARID1A / Fold change vs veh, ARID1A / RFU, ZNF146 / Fold change vs veh, ZNF146 / RFU, ZNF330 / Fold change vs veh, ZNF330 / RFU, GPN3 / Fold change vs veh, GPN3 / RFU, C9orf123 / Fold change vs veh, C9orf123 / RFU, N4BP2L2 / Fold change vs veh, N4BP2L2 / RFU, ARFIP1 / Fold change vs veh, ARFIP1 / RFU, FAM179B / Fold change vs veh, FAM179B / RFU, BCL10 / Fold change vs veh, BCL10 / RFU, UHRF1BP1L / Fold change vs veh, UHRF1BP1L / RFU, BET1 / Fold change vs veh, BET1 / RFU, CNOT2 / Fold change vs veh, CNOT2 / RFU, ZNF268 / Fold change vs veh, ZNF268 / Fold change vs veh, ZNF507 / RFU, DGCR2 / Fold change vs veh, DGCR2 / RFU, WDSUB1 / Fold change vs veh, WDSUB1 / Fold change vs veh, HSP90B1 /// MIR3652 / RFU, ADSS / Fold change vs veh, ADSS / RFU, GK / Fold change vs veh, GK / RFU, ZNF148 / Fold change vs veh, ZNF148 / RFU, TAF9 / Fold change vs veh, TAF9 / RFU, SLC1A5 / Fold change vs veh, SLC1A5 / RFU, SLMO2 / Fold change vs veh, SLMO2 / RFU, ABCC4 / Fold change vs veh, ABCC4 / RFU, LOC101060439 /// RAP1B / Fold change vs veh, LOC101060439 /// RAP1B / RFU, RFX7 / Fold change vs veh, RFX7 / RFU, GTPBP10 / Fold change vs veh, GTPBP10 / RFU, CNEP1R1 / Fold change vs veh, CNEP1R1 / RFU, BIVM-ERCC5 /// ERCC5 / Fold change vs veh, BIVM-ERCC5 /// ERCC5 / RFU, ILF3 / Fold change vs veh, ILF3 / RFU 11762660_at / Fold change /veh 11762660_at / RFU VCAN (11757783_s_at) / Fold change /veh VCAN (11757783_s_at) / RFU DDX43 (11728927_at) / Fold change /veh DDX43 (11728927_at) / RFU KRT8 (11758188_x_at) / Fold change /veh KRT8 (11758188_x_at) / RFU NKD1 (11759106_at) / Fold change /veh NKD1 (11759106_at) / RFU SRD5A1 (11742802_a_at) / Fold change /veh SRD5A1 (11742802_a_at) / RFU TPSAB1 /// TPSB2 (11721975_s_at) / Fold change /veh TPSAB1 /// TPSB2 (11721975_s_at) / RFU GSTM3 (11746129_a_at) / Fold change /veh GSTM3 (11746129_a_at) / RFU IL23R (11737362_x_at) / Fold change /veh IL23R (11737362_x_at) / RFU TMEM51 (11727254_a_at) / Fold change /veh TMEM51 (11727254_a_at) / RFU PIWIL2 (11732686_x_at) / Fold change /veh PIWIL2 (11732686_x_at) / RFU ORM1 (11744905_x_at) / Fold change /veh ORM1 (11744905_x_at) / RFU CCDC152 (11743942_at) / Fold change /veh CCDC152 (11743942_at) / RFU ECM1 (11717891_a_at) / Fold change /veh ECM1 (11717891_a_at) / RFU IL23R (11748794_a_at) / Fold change /veh IL23R (11748794_a_at) / RFU TNFAIP8L3 (11732012_x_at) / Fold change /veh TNFAIP8L3 (11732012_x_at) / RFU MBOAT4 (11741988_at) / Fold change /veh MBOAT4 (11741988_at) / RFU 11764193_at / Fold change /veh 11764193_at / RFU TMEM53 (11763286_at) / Fold change /veh TMEM53 (11763286_at) / RFU MAGEB2 (11727129_at) / Fold change /veh MAGEB2 (11727129_at) / RFU TMEM200A (11744735_a_at) / Fold change /veh TMEM200A (11744735_a_at) / RFU CCDC152 (11751479_a_at) / Fold change /veh CCDC152 (11751479_a_at) / RFU FAM211A (11726209_a_at) / Fold change /veh FAM211A (11726209_a_at) / RFU RGS16 (11746705_a_at) / Fold change /veh RGS16 (11746705_a_at) / RFU VCAN (11755009_s_at) / Fold change /veh VCAN (11755009_s_at) / RFU RHOB (11743442_s_at) / Fold change /veh RHOB (11743442_s_at) / RFU RGS16 (11720943_a_at) / Fold change /veh RGS16 (11720943_a_at) / RFU RGS16 (11720944_at) / Fold change /veh RGS16 (11720944_at) / RFU, VPS4B / Fold change vs veh, VPS4B / RFU, CREB1 / Fold change vs veh, CREB1 / RFU, DNAJC13 / Fold change vs veh, DNAJC13 / RFU, GNAQ / Fold change vs veh, GNAQ / RFU, CDK5R1 / Fold change vs veh, CDK5R1 / RFU, ZRANB3 / Fold change vs veh, ZRANB3 / RFU, CUL4A / Fold change vs veh, CUL4A / RFU, CCNY / Fold change vs veh, CCNY / RFU, UFL1 / Fold change vs veh, UFL1 / RFU, COG3 / Fold change vs veh, COG3 / RFU, DIAPH2 / Fold change vs veh, DIAPH2 / RFU, SKA2 / Fold change vs veh, SKA2 / RFU, AFF3 / Fold change vs veh, AFF3 / RFU, LMF1 / Fold change vs veh, LMF1 / RFU, IPO11 / Fold change vs veh, IPO11 / RFU, DFFB / Fold change vs veh, DFFB / RFU, FOXP1 / Fold change vs veh, FOXP1 / RFU, CARD8 / Fold change vs veh, CARD8 / RFU, STRN3 / Fold change vs veh, STRN3 / RFU, ADK / Fold change vs veh, ADK / RFU, RASSF2 / Fold change vs veh, RASSF2 / RFU, WIPF1 / Fold change vs veh, WIPF1 / RFU, LARP1B / Fold change vs veh, LARP1B / RFU, RASA1 / Fold change vs veh, RASA1 / RFU, RB1 / Fold change vs veh, RB1 / RFU, PPFIA1 / Fold change vs veh, PPFIA1 / RFU, MAT2A / Fold change vs veh, MAT2A / RFU, CCT5 / Fold change vs veh, CCT5 / RFU, WDR92 / Fold change vs veh, WDR92 / RFU, CUX1 / Fold change vs veh, CUX1 / RFU, TTC7A / Fold change vs veh, TTC7A / RFU, TMEM135 / Fold change vs veh, TMEM135 / RFU, DEPTOR / Fold change vs veh, DEPTOR / RFU, CPM / Fold change vs veh, CPM / RFU, DNAJB6 / Fold change vs veh, DNAJB6 / RFU, CACNA2D3 / Fold change vs veh, CACNA2D3 / RFU, DTX4 / Fold change vs veh, DTX4 / RFU, TFCP2 / Fold change vs veh, TFCP2 / RFU, GMCL1 /// GMCL1P1 / Fold change vs veh, GMCL1 /// GMCL1P1 / RFU, AEBP2 / Fold change vs veh, AEBP2 / RFU, SNHG1 /// SNORD22 /// SNORD25 /// SNORD26 /// SNORD27 /// SNORD28 /// SNORD29 /// SNORD31 / Fold change vs veh, SNHG1 /// SNORD22 /// SNORD25 /// SNORD26 /// SNORD27 /// SNORD28 /// SNORD29 /// SNORD31 / Fold change (Aza/veh), C12orf56 (ProbeSet 11735607_a_at) / Fold change (ACY-1035/veh), C12orf56 (ProbeSet 11735607_a_at) / Fold change (Aza/veh), FGFR1OP (ProbeSet 11751329_s_at) / Fold change (ACY-1035/veh), FGFR1OP (ProbeSet 11751329_s_at) / Fold change (Aza/veh), VPS36 (ProbeSet 11739960_a_at) / Fold change (ACY-1035/veh), VPS36 (ProbeSet 11739960_a_at) / RFU SYPL1 (11715823_x_at) / Fold change /veh SYPL1 (11715823_x_at) / RFU IGFBP7 (11715501_s_at) / Fold change /veh IGFBP7 (11715501_s_at) / RFU REEP3 (11722064_at) / Fold change /veh REEP3 (11722064_at) / RFU IGLL1 (11728026_x_at) / Fold change /veh IGLL1 (11728026_x_at): dose or concentration left out as unconfirmed
Conditions: MV-4-11 cells, 48 hours

SMILES: Nc1ncn([C@@H]2O[C@H](CO)[C@@H](O)[C@H]2O)c(=O)n1 [azacitidine]
- Fold change /veh FIZ1 (11724087_x_at): 1.09
